Results: ChEMBL document CHEMBL1141032, “Design and synthesis of peptidomimetic severe acute respiratory syndrome chymotrypsin-like protease inhibitors” (J Med Chem, 2005)
pIC50: −log10 of the molar value.

Tests used:
[1] = target: Replicase polyprotein 1a (Severe acute respiratory syndrome-related coronavirus, UniProt P0C6U8); assay: Inhibitory concentration required for antiviral activity against SARS-CoV 3CLpro protease
[2] = target: Replicase polyprotein 1a (Severe acute respiratory syndrome-related coronavirus) (UniProt P0C6U8); assay: Half life period against SARS-CoV 3CLpro protease
[3] = target: Replicase polyprotein 1a (Severe acute respiratory syndrome-related coronavirus) (UniProt P0C6U8); assay: Inactivation rate constant against SARS-CoV 3CLpro protease
[4] = target: Replicase polyprotein 1a (Severe acute respiratory syndrome-related coronavirus) (UniProt P0C6U8)

Molecule `CCOC(=O)/C=C/[C@H](C[C@@H]1CCNC1=O)NC(=O)[C@@H](CC(=O)[C@@H](NC(=O)c1cc(C)on1)C(C)C)Cc1ccccc1` has a pIC50 [1] of 4.35, a T1/2 [2] of 0.817 h and a kinact [3] of 0.014 min⁻¹.
`CC(C)C[C@H](NC(=O)[C@@H](O)C(S)C(=O)O)C(=O)NCCCCN=C(N)N` (some centres undefined) gave a T1/2 [2] of 5.25 h and a kinact [3] of 0.0022 min⁻¹.
`CCOC(=O)/C=C/[C@H](C[C@@H]1CCNC1=O)NC(=O)[C@H](CC=C(C)C)CC(=O)[C@@H](NC(=O)c1cc(C)on1)C(C)C` showed a T1/2 [2] of 0.25 h and a kinact [4] of 0.045 min⁻¹.
Molecule `CCOC(=O)/C=C/[C@H](C[C@@H]1CCNC1=O)NC(=O)[C@H](Cc1ccccc1)CC(O)[C@@H](NC(=O)c1cc(C)on1)C(C)C` (some centres undefined) has a T1/2 [2] of 4.62 h and a kinact [3] of 0.0025 min⁻¹.
